The results in this text go back to patent US5712129A, “Rapamycin derivative with antimicrobial, anticancer and immunomodulation activity” (SmithKline Beecham p. l. c., priority 1993, dated 1998).

Read-outs that look alike come from different tables or passages of the source.

The IC50 is the concentration that inhibits the measured activity by half.

The experiment relates to Spleen cells. The experiment in a line: Mitogenesis assay for immunosuppressive activity (concanavalin A stimulated spleen cells, 3H-thymidine). Format: cell-based, BDF1 female mice. Conditions: Mus musculus, read-out: Mitogenesis (IC50). How it is done:
Spleen cells for BDF1 female mice were established in RPMI with 10% fetal calf serum at 5×10^6 /mL. One hundred […] of this suspension (5×10^5 cells) were dispensed into 96-well round-bottomed microtiter plates (Linbro, Flow Laboratories). Concanavalin A (5 μg/ml) was added as the mitogenic stimulus, and the final volume in the microtiter wells was adjusted to 200 μL with RPMI. Cell cultures were incubated for 72 hours at 37° C. in a 5% CO2 atmosphere and pulsed with 0.5 μCi ^3 H-thymidine (specific activity […]) for the last 18 hours of the 72 hours culture. The cells were harvested on an automated multiple sample harvester and cell-associated radioactivity counted in a Beckman liquid scintillation counter. The results were expressed as the mean values derived from quadruplicate measurements. Cell viability was determined by trypan blue exclusion after 72 hours of incubation. Compounds to be tested were added to the microtiter plates at the appropriate dilutions prior to the addition of cells.

On to `COC1CC2CCC(C)C(O)(O2)C(=O)C(=O)N2CCCCC2C(=O)OC(C(C)CC2CCC(O)C(O)C2)CC(=O)C(C)C=C(C)C(O)C(OC)C(=O)C(C)CC(C)C=CC=CC=C1C` (centres unmarked) [42-O-demethylrapamycin], for which, where the note is “Concanavalin A 5 μg/ml, 72 hours at 37° C., 3H-thymidine pulse last 18 hours”, the IC50 worked out at 3 nM.

`CO[C@H]1C[C@@H]2CC[C@@H](C)[C@@](O)(O2)C(=O)C(=O)N2CCCC[C@H]2C(=O)O[C@H]([C@H](C)C[C@@H]2CC[C@@H](O)[C@H](OC)C2)CC(=O)[C@H](C)/C=C(\C)[C@@H](O)[C@@H](OC)C(=O)[C@H](C)C[C@H](C)/C=C/C=C/C=C/1C` [rapamycin]: the concentration for half-maximal inhibition (IC50) was 1 ± 1 nM.
